We go through one compound from patent US20260324636A1, “COMPOSITION FOR PROVIDING PLANT WITH STRESS RESISTANCE” (KIRIN HOLDINGS KABUSHIKI KAISHA, priority 2022, published 2026).

Each structure is given as a SMILES string.

The test system of one assay is OsZAT12. Kind of assay: OsZAT12 gene expression by real-time PCR, Example 12. It counts as in vivo, rice. Particulars: Oryza sativa; 0.5 mM in medium, 30° C. for 2 hours, aboveground part; read-out: OsZAT12 expression level, increase vs control. The source says:
In order to design primers for the target genes necessary for gene expression analysis by real-time PCR, homologs of Arabidopsis thaliana high-temperature-responsive genes in rice were searched for. The amino acid sequence of Arabidopsis thaliana ZAT12 (AGI code: AT5G59820) was obtained from TAIR (https://www.arabidopsis.org/), and the nucleotide sequence of the homolog was obtained using RAP-DB (https://rapdb.dna.affrc.go.jp/). As a reference gene, the nucleotide sequence of the homolog of Arabidopsis thaliana ACTIN2 (AGI code: AT3G18780) was also obtained. Homolog genes in rice were designated as OsZAT12 and OsACT1, respectively.
The materials as employed in Example 3 were used.
The method as employed in Example 3 was employed.
The rice samples subjected to germination for 3 days were inoculated into a liquid medium consisting of a ½ Murashige and Skoog Plant Salt Mixture. Specifically, a liquid medium was dispensed at 3 ml/well to a 12-well microplate (IWAKI), and 3 samples were transferred to each well. N-acetylglutamic acid was applied to each well to the final concentration of 0.5 mM in the medium, incubation was performed at 30° C. for 2 hours, and RNA was extracted from the aboveground part using the RNeasy Plant Mini Kit. […]
Thereafter, the relative expression level of the target gene upon N-acetylglutamic acid treatment was calculated by the ΔΔCt method.
On the technique in general: Real-time PCR tracks product formation cycle by cycle.

Another assay concerns rice. Put plainly: High-temperature stress resistance in rice (fresh weight of aboveground part), Example 3. The class given is in vivo, rice (variety: Nipponbare). Particulars: 0.5 mM in medium, 24 h before 44° C. for 3 hours, then 22° C. 3 days. The procedure:
A wild-type rice strain (the variety: Nipponbare) was used as an experimental material. Seeds were purchased from Nouken (https://nouken-seed.shop-pro.jp/).
A liquid medium consisting of a ½ Murashige and Skoog Plant Salt Mixture (Nacalai) was used as a growth medium.
With the use of a 50-ml Falcon tube, rice seeds were sterilized for 30 minutes with the use of a Kitchen Haiter® liquid (Kao Corporation) diluted to one-half concentration with distilled water for 30 minutes and washed 5 times with sterile distilled water. The tube was laid down, sterile distilled water was introduced thereinto in an amount that would sufficiently soak the washed seeds, and culture was performed in an incubator for 3 days to germinate the seeds. The incubator was maintained at a temperature of 30° C. for a daily cycle of 16 hours light and 8 hours darkness.
The growth medium was dispensed at 3 ml/well on a 12-well microplate (IWAKI) 3 days after the initiation of incubation, 3 grains of the germinated seeds were inoculated in each well, and the resultants were handled as experimental materials. […]
High-temperature treatment was performed with the use of an incubator. […] Thereafter, the plate was incubated in an incubator maintained at 22° C. for 3 days, plants were collected, and the fresh weight of the aboveground part excluding seeds and roots was quantified.

The next assay relates to hop. Put plainly: High-temperature stress resistance in hop (fresh weight of aboveground part), Example 4. It counts as in vivo, hop (variety: Saaz). Particulars: 0.1 mM in agar medium, 30° C. 2 weeks. The procedure:
A hop strain (the variety: Saaz) was used as an experimental material. Hop seedlings were purchased from Hananoyakata (http://hananoyakata.shop-pro.jp).
Tissue-cultured seedlings required for evaluation of high temperature response of a hop were prepared in a laboratory. A stem fragment including a node was removed from a Saaz seedling as an explant and incubated with 70 (v/v) % ethanol (FUJIFILM Wako) for 1 minute and with 1 (v/v) % sodium hypochlorite (FUJIFILM Wako) for 5 minutes for sterilization. The explant was washed with sterile water for 1 minute, washing was repeated 3 times, moisture was removed therefrom with a paper towel, the explant was inoculated in an agar medium containing a ½ Murashige and Skoog Plant Salt Mixture, 2 (w/v) % glucose, and 0.2 (w/v) % gellan gum (FUJIFILM Wako), and culture was initiated in an incubator. The incubator was maintained at a temperature of 20° C. for a daily cycle of 16 hours light and 8 hours darkness. Two weeks after the initiation of culture, axillary buds extending from the nodes were cut and inoculated into an agar medium, and the sufficiently grown seedlings were designated as “tissue-cultured seedlings.” Tissue-cultured seedlings were subcultured by inoculating apical buds into fresh agar media every 1.5 months. […]

Consider `CC(=O)N[C@@H](CCC(=O)O)C(=O)O` [N-acetylglutamic acid], for which, in the assay with OsZAT12, the fold induction at 500 µM amounted to 2.9. Moreover, the “decrease in the fresh weight of the aboveground part caused by high-temperature treatment” value in the assay on rice was “suppressed to a significant extent”. Also, the “fresh weight of the aboveground part, increase relative to the group not subjected to the treatment” value in the assay with hop is reported as 1.8 times. Besides, the “decrease in the fresh weight of the aboveground part caused by the high-temperature treatment” value in the assay on hop (vs control group) is “suppressed”.
